Laboratory results as given in patent US10292412B2, “High solubility natural sweetener compositions” (KRAFT FOODS GLOBAL BRANDS LLC, priority 2012, dated 2019).

Key:
[1] = Example 3: solubility (1-5 scale) after seven days; ambient water, heated water or 0.45 micron filtered rebaudioside A solutions with citric acid and ethanol; type: physicochemical
Procedure: Several solutions including rebaudioside A were prepared to test the effect of heating and filtering on the solubility of rebaudioside A. The formulations are as follows: […]
The solutions for the ambient water experimentation were prepared by dissolving rebaudioside A in ambient water (about 68° F. to about 77° F.) using a magnetic stir bar. Citric acid and ethanol were then dissolved into the solution using a magnetic stir bar.
The solutions for the heated water experimentation were prepared by heating water to 150° F. Rebaudioside A was added and dissolved using a magnetic stir bar. The solution was removed from the heat and citric acid was added and dissolved by a magnetic stir bar. After the solution cooled to 100° F. or below, ethanol was added and stirred into the solution by a magnetic stirrer.
The solutions for the filtered rebaudioside A experimentation were prepared by first dissolving rebaudioside A in ambient water (about 68° F. to about 77° F.) using a magnetic stir bar. The solution was then passed through a 0.45 micron filter. Citric acid and ethanol were dissolved into the solution using a magnetic stir bar.
Solubility was measured according to the 1-5 scale in the table above after seven days. […]

[2] = Example 2: solubility of rebaudioside A in liquid concentrates with varying water, acid and alcohol; type: physicochemical; parameters: scale not given here
Procedure: Liquid concentrate formulations were prepared including varying levels of rebaudioside A, water, alcohol, and acid. The solubility was measured at various concentrations of each of the components and the results are included in the tables below: […]

C=C1C[C@@]23CC[C@H]4[C@@](C)(CCC[C@@]4(C)C(=O)O[C@@H]4O[C@H](CO)[C@@H](O)[C@H](O)[C@H]4O)[C@@H]2CC[C@]1(O[C@@H]1O[C@H](CO)[C@@H](O)[C@H](O[C@@H]2O[C@H](CO)[C@@H](O)[C@H](O)[C@H]2O)[C@H]1O[C@@H]1O[C@H](CO)[C@@H](O)[C@H](O)[C@H]1O)C3 [Reb A, rebaudioside A]
solubility after seven days ([1]; ambient water, 5 wt % rebaudioside A, all ethanol/acid conditions tested except high ethanol (30% by volume) and high acid (30% by weight)): crystallized | solubility after seven days ([1]; ambient water, 10 wt % rebaudioside A, high ethanol (30% by volume) and high acid (30% by weight)): failed | solubility after seven days ([1]; ambient water, filtered at 0.45 micron, 5 wt % rebaudioside A, all points except low acid/low ethanol): passed | solubility after seven days ([1]; heated water (150° F.), 5 wt % rebaudioside A, all ethanol/acid points): passed | solubility after seven days ([1]; heated water (150° F.), 10 wt % rebaudioside A, all ethanol/acid points): passed | solubility after seven days ([1]; heated water (150° F.), 15 wt % rebaudioside A, low ethanol (10%)/low acid (10%)): failed | solubility after seven days ([1]; heated water (150° F.), 15 wt % rebaudioside A, medium ethanol (20%)/low acid): failed | Response 1 Solubility ([2]; Water/Citric Acid/Ethanol (190 Proof)/RebA 0.00/0/92.44/7.5600 ml): 5 | Response 1 Solubility ([2]; Water/Citric Acid/Ethanol (190 Proof)/RebA 0.00/21.92/77.48/0.6048 ml): 1 | Response 1 Solubility ([2]; Water/Citric Acid/Ethanol (190 Proof)/RebA 39.71/32.88/19.85/7.5600 ml): 1 | Response 1 Solubility ([2]; Water/Citric Acid/Ethanol (190 Proof)/RebA 47.96/0/47.96/4.0824 ml): 1 | Response 1 Solubility ([2]; Water/Citric Acid/Ethanol (190 Proof)/RebA 59.56/32.88/0.00/7.5600 ml): 2 | Response 1 Solubility ([2]; Water/Citric Acid/Propylene Glycol/RebA 0.00/0/92.44/7.5600 ml): Insoluble | Response 1 Solubility ([2]; Water/Citric Acid/Propylene Glycol/RebA 0.00/0/99.40/0.6048 ml): 1 | Response 1 Solubility ([2]; Water/Citric Acid/Propylene Glycol/RebA 0.00/21.92/77.48/0.6048 ml): Insoluble | Response 1 Solubility ([2]; Water/Citric Acid/Propylene Glycol/RebA 33.13/0/66.26/0.6048 ml): 1 | Response 1 Solubility ([2]; Water/Citric Acid/Propylene Glycol/RebA 33.13/10.96/55.30/0.6048 ml): 1 | Response 1 Solubility ([2]; Water/Citric Acid/Propylene Glycol/RebA 39.71/32.88/19.85/7.5600 ml): Insoluble | Response 1 Solubility ([2]; Water/Citric Acid/Propylene Glycol/RebA 47.96/0/47.96/4.0824 ml): 2 | Response 1 Solubility ([2]; Water/Citric Acid/Propylene Glycol/RebA 49.65/24.66/19.87/5.8212 ml): 2 | Response 1 Solubility ([2]; Water/Citric Acid/Propylene Glycol/RebA 55.30/10.96/33.13/0.6048 ml): 1 | Response 1 Solubility ([2]; Water/Citric Acid/Propylene Glycol/RebA 59.56/32.88/0.00/7.5600 ml): 2 | Response 1 Solubility ([2]; Water/Citric Acid/Propylene Glycol/RebA 59.61/16.44/19.87/4.0824 ml): 2 | Response 1 Solubility ([2]; Water/Citric Acid/Propylene Glycol/RebA 66.26/0/33.13/0.6048 ml): 1 | Response 1 Solubility ([2]; Water/Citric Acid/Propylene Glycol/RebA 66.52/32.88/0.00/0.6048 ml): 1 | Response 1 Solubility ([2]; Water/Citric Acid/Propylene Glycol/RebA 69.57/8.22/19.87/2.3436 ml): 3 | Response 1 Solubility ([2]; Water/Citric Acid/Propylene Glycol/RebA 79.48/16.44/0.00/4.0824 ml): 3 | Response 1 Solubility ([2]; Water/Citric Acid/Propylene Glycol/RebA 92.44/0/0.00/7.5600 ml): 5 | Response 1 Solubility ([2]; Water/Citric Acid/Propylene Glycol/RebA 99.40/0/0.00/0.6048 ml): 3 | Response 1 Solubility ([2]; Water/Malic Acid/Ethanol (200 Proof)/RebA 0.00/0/92.44/7.5600 ml): Insoluble | Response 1 Solubility ([2]; Water/Malic Acid/Ethanol (200 Proof)/RebA 0.00/0/99.40/0.6048 ml): Insoluble | Response 1 Solubility ([2]; Water/Malic Acid/Ethanol (200 Proof)/RebA 0.00/10.96/88.44/0.6048 ml): 5 | Response 1 Solubility ([2]; Water/Malic Acid/Ethanol (200 Proof)/RebA 55.30/10.96/33.13/0.6048 ml): 1 | Response 1 Solubility ([2]; Water/Phosphoric Acid/Ethanol (190 Proof)/RebA 0.00/0.00/92.44/7.56 ml): Insoluble | Response 1 Solubility ([2]; Water/Phosphoric Acid/Ethanol (190 Proof)/RebA 0.00/0.00/99.40/0.60 ml): Insoluble | Response 1 Solubility ([2]; Water/Phosphoric Acid/Ethanol (190 Proof)/RebA 0.00/30.81/61.63/7.56 ml): Insoluble | Response 1 Solubility ([2]; Water/Phosphoric Acid/Ethanol (190 Proof)/RebA 0.00/33.13/66.26/0.60 ml): 1 | Response 1 Solubility ([2]; Water/Phosphoric Acid/Ethanol (190 Proof)/RebA 0.00/47.96/47.96/4.08 ml): Insoluble | Response 1 Solubility ([2]; Water/Phosphoric Acid/Ethanol (190 Proof)/RebA 0.00/66.26/33.13/0.60 ml): 1 | Response 1 Solubility ([2]; Water/Phosphoric Acid/Ethanol (190 Proof)/RebA 0.00/92.44/0.00/7.56 ml): Insoluble | Response 1 Solubility ([2]; Water/Phosphoric Acid/Ethanol (190 Proof)/RebA 0.00/99.40/0.00/0.60 ml): Insoluble | Response 1 Solubility ([2]; Water/Phosphoric Acid/Ethanol (190 Proof)/RebA 15.99/15.99/62.21/5.82 ml): 2 | Response 1 Solubility ([2]; Water/Phosphoric Acid/Ethanol (190 Proof)/RebA 15.99/39.10/39.10/5.82 ml): 2 | Response 1 Solubility ([2]; Water/Phosphoric Acid/Ethanol (190 Proof)/RebA 15.99/62.21/15.99/5.82 ml): Insoluble | Response 1 Solubility ([2]; Water/Phosphoric Acid/Ethanol (190 Proof)/RebA 30.81/61.63/0.00/7.56 ml): Insoluble | Response 1 Solubility ([2]; Water/Phosphoric Acid/Ethanol (190 Proof)/RebA 33.13/0.00/66.26/0.60 ml): 1 | Response 1 Solubility ([2]; Water/Phosphoric Acid/Ethanol (190 Proof)/RebA 33.13/33.13/33.13/0.60 ml): 1 | Response 1 Solubility ([2]; Water/Phosphoric Acid/Ethanol (190 Proof)/RebA 33.13/66.26/0.00/0.60 ml): Insoluble | Response 1 Solubility ([2]; Water/Phosphoric Acid/Ethanol (190 Proof)/RebA 39.10/15.99/39.10/5.82 ml): 2
